This is an account of results in patent US10154992B2, “Compounds and methods for treating HIV infection” (THE REGENTS OF THE UNIVERSITY OF CALIFORNIA, priority 2016, dated 2018).

In series [1] the test system is HIV RRE (Rev-dependent) reporter. The series is described as follows: Rev reporter assay in 293T cells, p24 ELISA. Conditions: Human immunodeficiency virus 1, HEK-293T, Table 2. In kind it is cell-based. The procedure:
Rev reporter assay. In the Rev reporter assay, 293T cells were transfected with an HIV RRE (Rev-dependent) reporter plus a pSV2 Rev expression plasmid (Hope, T. J., et al. (1990) Proc. Natl. Acad. Sci. USA 87, 7787-7791). Compounds were incubated with the cells for 48 hours and reporter activity was assessed by p24 ELISA. Leptomycin B, an inhibitor of the Crm1 pathway that inhibits Rev-dependent export, was included as a control. The cytotoxicity of each compound was determined in parallel via MTT-based cell viability assays.

Series [2] deals with HIV-1 isolate NL4-3 deleted for Vpu. The series is described as follows: Replication assay in Jurkat cells with Vpu-deleted virus. Format: cell-based. Conditions: Human immunodeficiency virus 1, NL43, Jurkat, read-out: IC50 value for isolate NL4-3 deleted for Vpu. The procedure:
FIG. 10. In embodiments, HIV viruses that are defective or deleted for Vpu are resistant to the compounds described herein. Replication assays with HIV-1 isolate NL4-3 or NL4-3 deleted for Vpu in Jurkat cells. Replication spreading assays were performed with compound at doses ranging from 1 nM to 316 nM in triplicate. Supernatants were collected every 48-72 hours and p24 values were determined by ELISA. FIG. 10 corresponds to analog 4e with HIV-1 isolate NL4-3 in Jurkat cells and with HIV-1 isolate NL4-3 deleted for Vpu in Jurkat cells.
Virus spreading assay. Jurkat (E6-1) cells (NIH AIDS Reagent Program) were cultured in RPMI media supplemented with 25 mM HEPES pH 7.4, 10% heat-inactivated fetal calf serum (Hyclone, Waltham Mass.), and 1% penicillin/streptomycin. 2.5×10^5 Jurkat cells were inoculated with 250 pg p24 in 250 μl media in a 96-well flat bottom polystyrene cell culture microplate. Input virus was removed after 18 hours via washing cells phosphate-buffered saline (PBS). Cells were resuspended in 250 μl of media containing compounds at the described concentrations. […] Viral replication was quantified using ELISA to quantify p24 viral capsid protein in the culture supernatant. […] Toxicity was monitored using the MTT cell viability assay (Mosmann, T. (1983). J Immunol Methods 65, 55-63). […]

Another series is described as follows: Caco-2 permeability. Format: in vitro ADME. To be noted: human. From the text: We next evaluated analogs 2b, 2f, 4a, and 4e in a panel of standard in vitro ADME assays to assess drug-like properties and the potential for efficacy in animals.

Compound `NC(=O)c1cc2c(-c3ccc4c(c3)CCO4)cncc2s1` [Compound 4e, 4-(2,3-dihydro-1-benzofuran-5-yl)thieno[2,3-c]pyridine-2-carboxamide] showed a 50% effective concentration (EC50) in series [1] of 0.1 to 0.5 µM. In addition, the half-inhibitory concentration (IC50) in series [2] came out at 0.15 µM. This compound gave a Papp in the series “Caco-2 permeability” of 66.6 ×10⁻⁶ cm/s.
